33 compounds from patent US11090304B2 (Amgen Inc., priority 2018, dated 2021) can be followed below.

Read-outs that look alike come from different tables or passages of the source.

For test [1], the target named is GDP-bound KRAS protein (aa 1-169), containing both G12C and C118A amino acid substitutions (Homo sapiens, UniProt P01116, C118A/G12C). In words: Coupled nucleotide exchange assay (SOS-mediated, AlphaScreen). The following applies: 5 min compound pre-incubation. It is filed as biochemical. On the technique in general: Alpha assays give light when donor and acceptor beads are brought close together.
GDP-bound KRAS protein (aa 1-169), containing both G12C and C118A amino acid substitutions, sequence (P01116 1-169 isoform P01116-2 G12C/C118A): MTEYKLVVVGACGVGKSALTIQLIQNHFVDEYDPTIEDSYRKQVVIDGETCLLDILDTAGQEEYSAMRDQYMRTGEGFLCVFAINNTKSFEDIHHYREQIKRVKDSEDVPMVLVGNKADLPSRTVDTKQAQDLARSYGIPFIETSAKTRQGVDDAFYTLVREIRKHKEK

The subject of test [2] is Phosphorylation of ERK1/2 in MIA PaCa-2 cells. Briefly: Phospho-ERK1/2 MSD assay in MIA PaCa-2 cells. It is filed as cell-based. The following applies: read-out: p-ERK IC50 (2 h; MIA PaCa-2), 2 h compound treatment. The gist of the method: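 MSD electrochemiluminescence readout of phospho-ERK1/2 in whole-cell lysates, IC50 by 4-parameter logistic fit. Compound titrations were applied for 2 or 4 h at 37 °C, 5% CO2, followed by 10 ng/mL EGF stimulation for 10 min before lysis.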

As a reminder, the IC50 is the point on the concentration scale where inhibition reaches its midpoint. For `C=CC(=O)N1CCN(c2nc(=O)n(-c3ccccc3C(C)C)c3nc(-c4ccc(F)cc4F)c(Cl)cc23)[C@@H](C)C1` (single isomer, unassigned) [Example 54-85-2], in test [1], the “Coupled exchange IC50 (5 min)” value is 0.078 | nda μM. For the same compound, in test [2], the IC50 stood at 0.079 µM.

In the case of `C=CC(=O)N1CCN(c2nc(=O)n(-c3ccccc3C(C)C)c3nc(-c4cc(O)ccc4F)c(Cl)cc23)[C@@H](C)C1` (single isomer, unassigned) [Example 54-88-1], the “Coupled exchange IC50 (5 min)” value in test [1] was 0.077 | nda μM. Besides, in test [2] (Homo sapiens, MIA PaCa-2, 2 h), the IC50 came out at 0.084 µM.

As for `C=CC(=O)N1CCN(c2nc(=O)n(-c3ccccc3C(C)C)c3nc(-c4cc(O)ccc4Cl)c(Cl)cc23)[C@@H](C)C1` (single isomer, unassigned) [Example 54-90-1], the “Coupled exchange IC50 (5 min)” value in test [1] is listed as 0.047 | nda μM. Besides, the concentration for half-maximal inhibition (IC50) in test [2] stood at 0.063 µM.

With `C=CC(=O)N1CCN(c2nc(=O)n(-c3ccccc3C(C)C)c3nc(-c4cc(O)ccc4Cl)c(Cl)cc23)[C@@H](C)C1` (single isomer, unassigned) [Example 54-90-2], the “Coupled exchange IC50 (5 min)” value in test [1] was 0.633 | nda μM. Besides, in test [2], the IC50 amounted to 0.568 µM.

Take `C=CC(=O)N1CCN(c2nc(=O)n(-c3ccccc3C(C)C)c3nc(-c4cc(O)cc(Cl)c4Cl)c(Cl)cc23)[C@@H](C)C1` (single isomer, unassigned) [Example 54-91-1]: the “Coupled exchange IC50 (5 min)” value in test [1] is recorded as 0.021 | nda μM. Also, the IC50 in test [2] came to 0.033 µM.

As for `C=CC(=O)N1CCN(c2nc(=O)n(-c3ccccc3C(C)C)c3nc(-c4cc(O)cc(Cl)c4Cl)c(Cl)cc23)[C@@H](C)C1` (single isomer, unassigned) [Example 54-91-2], the “Coupled exchange IC50 (5 min)” value in test [1] was 0.181 | nda μM. In addition, the IC50 in test [2] turned out to be 0.509 µM.

Consider `C=CC(=O)N1CCN(c2nc(=O)n(-c3ccccc3C3(C)CC3)c3nc(-c4c(O)cccc4F)c(Cl)cc23)[C@@H](C)C1` (single isomer, unassigned) [Example 54-97-1], for which the “Coupled exchange IC50 (5 min)” value in test [1] is on record as 0.971 | nda μM. For the same compound, the IC50 in test [2] came to 1.02 µM.

On to `C=CC(=O)N1CCN(c2nc(=O)n(-c3ccccc3C3(C)CC3)c3nc(-c4c(O)cccc4F)c(Cl)cc23)[C@@H](C)C1` (single isomer, unassigned) [Example 54-97-2], for which the “Coupled exchange IC50 (5 min)” value in test [1] is recorded as 0.044 | nda μM. For the same compound, the IC50 in test [2] is 0.141 µM.

`C=CC(=O)N1CCN(c2nc(=O)n(-c3ccccc3C3(C)CC3)c3nc(-c4ccccc4F)c(Cl)cc23)[C@@H](C)C1` (single isomer, unassigned) [Example 54-99-2]: in test [1], the “Coupled exchange IC50 (5 min)” value is listed as 0.094 | nda μM. The IC50 in test [2] (Homo sapiens, MIA PaCa-2, 2 h) came out at 0.174 µM.

Consider `C=CC(=O)N1CCN(c2nc(=O)n(-c3cccnc3C(C)(C)C)c3nc(-c4c(O)cccc4F)c(Cl)cc23)[C@@H](C)C1` (single isomer, unassigned) [Example 54-103-1], for which the “Coupled exchange IC50 (5 min)” value in test [1] is 0.073 | nda μM. Moreover, the IC50 in test [2] (Homo sapiens, MIA PaCa-2, 2 h) was found to be 0.093 µM.

`C=CC(=O)N1CCN(c2nc(=O)n(-c3c(C(C)C)cccc3N(C)C)c3nc(-c4ccccc4F)c(Cl)cc23)[C@@H](C)C1` (single isomer, unassigned) [Example 54-104-2]: the “Coupled exchange IC50 (5 min)” value in test [1] is on record as 0.035 | nda μM. In addition, in test [2] (Homo sapiens, MIA PaCa-2, 2 h), the IC50 came to 0.21 µM.

On to `C=CC(=O)N1CCN(c2nc(=O)n(-c3c(OC)ncnc3C(C)C)c3nc(-c4ccccc4F)c(Cl)cc23)[C@@H](C)C1` (single isomer, unassigned) [Example 54-107-2], for which the “Coupled exchange IC50 (5 min)” value in test [1] is 0.067 | nda μM. For the same compound, the IC50 in test [2] (Homo sapiens, MIA PaCa-2, 2 h) worked out at 0.048 µM.

Take `C=CC(=O)N1CCN(c2nc(=O)n(-c3cncnc3C(C)(C)C)c3nc(-c4ccccc4F)c(Cl)cc23)[C@@H](C)C1` (single isomer, unassigned) [Example 54-110-2]: the “Coupled exchange IC50 (5 min)” value in test [1] is 0.194 | nda μM. Also, in test [2] (Homo sapiens, MIA PaCa-2, 2 h), the IC50 amounted to 0.119 µM.

`C=CC(=O)N1CCN(c2nc(=O)n(-c3cccnc3C(C)(C)C)c3nc(-c4ccccc4F)c(Cl)cc23)[C@@H](C)C1` (single isomer, unassigned) [Example 54-112-1]: the “Coupled exchange IC50 (5 min)” value in test [1] is given as 0.075 | nda μM. Also, in test [2] (Homo sapiens, MIA PaCa-2, 2 h), the IC50 is 0.125 µM.

For `C=CC(=O)N1CCN(c2nc(=O)n(-c3c(C)nc(C)nc3C(C)C)c3nc(-c4c(O)cccc4F)c(Cl)cc23)[C@@H](C)C1` (single isomer, unassigned) [Example 55-4-1], the “Coupled exchange IC50 (5 min)” value in test [1] was 0.023 | nda μM. Also, the IC50 in test [2] (Homo sapiens, MIA PaCa-2, 2 h) was determined as 0.037 µM.

As to `C=CC(=O)N1CCN(c2nc(=O)n(-c3c(C)ccnc3N(C)C)c3nc(-c4ccccc4F)c(Cl)cc23)[C@@H](C)C1` (single isomer, unassigned) [Example 55-7-2], in test [1], the “Coupled exchange IC50 (5 min)” value was 0.325 | nda μM. The IC50 in test [2] (Homo sapiens, MIA PaCa-2, 2 h) is 0.587 µM.

Turning to `C=CC(=O)N1CCN(c2nc(=O)n(-c3c(C)cccc3CC)c3nc(-c4ccccc4F)c(Cl)cc23)[C@@H](C)C1` (single isomer, unassigned) [Example 55-9-1], the “Coupled exchange IC50 (5 min)” value in test [1] is listed as 0.804 | nda μM. Further, in test [2], the IC50 was found to be 1.35 µM.

Regarding `C=CC(=O)N1CCN(c2nc(=O)n(-c3c(C)cccc3CC)c3nc(-c4ccccc4F)c(Cl)cc23)[C@@H](C)C1` (single isomer, unassigned) [Example 55-9-2], in test [1], the “Coupled exchange IC50 (5 min)” value is recorded as 0.158 | nda μM. In addition, the IC50 in test [2] was 0.298 µM.

Consider `C=CC(=O)N1CCN(c2nc(=O)n(-c3c(C)ccnc3CC)c3nc(-c4c(O)cccc4F)c(Cl)cc23)[C@@H](C)C1` (single isomer, unassigned) [Example 55-10-1], for which the “Coupled exchange IC50 (5 min)” value in test [1] is 0.065 | nda μM. Also, the IC50 in test [2] was determined as 0.082 µM.

As for `C=CC(=O)N1CCN(c2nc(=O)n(-c3c(C)ccnc3CC)c3nc(-c4c(O)cccc4F)c(Cl)cc23)[C@@H](C)C1` (single isomer, unassigned) [Example 55-10-2], the “Coupled exchange IC50 (5 min)” value in test [1] is given as 0.266 | nda μM. For the same compound, in test [2], the IC50 was 0.344 µM.

Regarding `C=CC(=O)N1CCN(c2nc(=O)n(-c3c(C)cccc3C3CC3)c3nc(-c4c(O)cccc4F)c(Cl)cc23)[C@@H](C)C1` (single isomer, unassigned) [Example 55-15-1], the “Coupled exchange IC50 (5 min)” value in test [1] is reported as 0.169 | nda μM. For the same compound, the IC50 in test [2] was 0.206 µM.

Take `C=CC(=O)N1CCN(c2nc(=O)n(-c3c(C)cccc3C3CC3)c3nc(-c4c(O)cccc4F)c(Cl)cc23)[C@@H](C)C1` (single isomer, unassigned) [Example 55-15-2]: the “Coupled exchange IC50 (5 min)” value in test [1] is given as 0.061 | nda μM. In test [2], the IC50 was found to be 0.076 µM.

`C=CC(=O)N1CCN(c2nc(=O)n(-c3c(O)cccc3C(C)C)c3nc(-c4ccccc4F)c(Cl)cc23)[C@@H](C)C1` (single isomer, unassigned) [Example 55-26-2]: the “Coupled exchange IC50 (5 min)” value in test [1] is 0.031 | nda μM. The IC50 in test [2] (Homo sapiens, MIA PaCa-2, 2 h) is 0.124 µM.

For the compound `C=CC(=O)N1CCN(c2nc(=O)n(-c3c(C)cnn3C(C)(C)C)c3nc(-c4ccccc4F)c(Cl)cc23)[C@@H](C)C1` (single isomer, unassigned) [Example 55-38-2], the “Coupled exchange IC50 (5 min)” value in test [1] is recorded as 0.133 | nda μM. Also, in test [2] (Homo sapiens, MIA PaCa-2, 2 h), the IC50 came to 0.108 µM.

Take `C=CC(=O)N1CCN(c2nc(=O)n(-c3c(C)ncnc3C(C)C)c3nc(-c4cc(F)ccc4F)c(Cl)cc23)[C@@H](C)C1` (single isomer, unassigned) [Example 55-39-2]: the “Coupled exchange IC50 (5 min)” value in test [1] is 0.121 | nda μM. In addition, the IC50 in test [2] (Homo sapiens, MIA PaCa-2, 2 h) was 0.111 µM.

For the compound `C=CC(=O)N1CCN(c2nc(=O)n(-c3c(C)ncnc3C(C)C)c3nc(-c4cc(C)ccc4F)c(Cl)cc23)[C@@H](C)C1` (single isomer, unassigned) [Example 55-40-2], in test [1], the “Coupled exchange IC50 (5 min)” value was 0.078 | nda μM. The IC50 in test [2] (Homo sapiens, MIA PaCa-2, 2 h) worked out at 0.081 µM.

Turning to `C=CC(=O)N1CCN(c2nc(=O)n(-c3c(CO)cccc3C(C)C)c3nc(-c4ccccc4F)c(Cl)cc23)[C@@H](C)C1` (single isomer, unassigned) [Example 55-43-2], the “Coupled exchange IC50 (5 min)” value in test [1] is 0.022 | nda μM. The IC50 in test [2] (Homo sapiens, MIA PaCa-2, 2 h) came to 0.032 µM.

Take `C=CC(=O)N1CCN(c2nc(=O)n(-c3ccccc3S(F)(F)(F)(F)F)c3nc(-c4c(O)cccc4F)c(Cl)cc23)[C@@H](C)C1` (single isomer, unassigned) [Example 56-1-2]: the “Coupled exchange IC50 (5 min)” value in test [1] is 0.068 | nda μM. The IC50 in test [2] (Homo sapiens, MIA PaCa-2, 2 h) turned out to be 0.145 µM.

As to `C=CC(=O)N1CCN(c2nc(=O)n(-c3c(C)cccc3C3CC3)c3nc(-c4ccccc4F)c(Cl)cc23)[C@@H](C)C1` (single isomer, unassigned) [Example 56-5-1], the “Coupled exchange IC50 (5 min)” value in test [1] is given as 0.154 | nda μM. For the same compound, the IC50 in test [2] was 0.188 µM.

Consider `C=CC(=O)N1CCN(c2nc(=O)n(-c3c(C)cccc3C3CC3)c3nc(-c4ccccc4F)c(Cl)cc23)[C@@H](C)C1` (single isomer, unassigned) [Example 56-5-2], for which the “Coupled exchange IC50 (5 min)” value in test [1] was 0.668 | nda μM. Moreover, the IC50 in test [2] is 0.823 µM.

For `C=CC(=O)N1CCN(c2nc(=O)n(-c3ccccc3C(C)C)c3nc(-c4cc(N)ccc4Cl)c(Cl)cc23)[C@@H](C)C1` (single isomer, unassigned) [Example 56-7-1], in test [1], the “Coupled exchange IC50 (5 min)” value is recorded as 0.079 | nda μM. Further, in test [2], the IC50 is 0.029 µM.

As for `C=CC(=O)N1CCN(c2nc(=O)n(-c3ccccc3C(C)C)c3nc(-c4cc(N)ccc4Cl)c(Cl)cc23)[C@@H](C)C1` (single isomer, unassigned) [Example 56-7-2], the “Coupled exchange IC50 (5 min)” value in test [1] is recorded as 0.676 | nda μM. Moreover, the IC50 in test [2] was determined as 0.134 µM.

`C=CC(=O)N1CCN(c2nc(=O)n(-c3c(C)ccnc3CC)c3nc(-c4c(O)cccc4F)c(F)cc23)[C@@H](C)C1` (single isomer, unassigned) [Example 57-1-1]: the “Coupled exchange IC50 (5 min)” value in test [1] was 0.524 | nda μM. The IC50 in test [2] (Homo sapiens, MIA PaCa-2, 2 h) turned out to be 0.63 µM.
